Assay in all cases: NCI anticancer screen, dose series, 48 h
The subject of assay [1] is SNB-75 CNS.
Assay [2] has as its system ACHN renal.
The subject of assay [3] is SK-MEL-2 melanoma.
For assay [4], the system named is HT29 colon.
In assay [5] the test system is UACC-62 melanoma.
The subject of assay [6] is SK-MEL-28 melanoma.
The test system of assay [7] is MDA-MB-231 breast.
The subject of assay [8] is SF-295 CNS.
Assay [9] has as its system RXF 393 renal.
Assay [10] deals with HL-60(TB) leukemia.

Each structure is given as a SMILES string.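 The compound was tested at five concentrations on cells cultured in 96-well plates, with a 48-hour exposure period. Here, GI50 denotes the concentration required for 50% inhibition of growth. Definition used: TGI = concentration required for complete inhibition of growth.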

The values that follow come from PubChem BioAssay (NCI).

For the compound `CC(=O)/C(=C\c1c(-c2ccccc2)[nH]c2ccccc12)S(=O)(=O)c1ccccc1`, the GI50 in [1] was 1.59 µM; in assay [2], 2.06 µM; in assay [3] it was 1.39 µM; in assay [4], 0.576 µM; in assay [5], 0.975 µM; in assay [6], 1.87 µM. For the same compound, the GI50 in [7] was 1.74 µM; in [8], 2.33 µM; in [9], 1.25 µM; in [10], 1.69 µM. The TGI in [1] was 14.6 µM; in assay [2], 5.09 µM; in [3], 5.3 µM; in [4] it was 2.32 µM; in assay [5], 4.46 µM; in assay [6], 7.02 µM. Also, the TGI in assay [7] was determined as 19.2 µM; in assay [8] it was 10.2 µM; in [9], 2.8 µM; in [10], 5.28 µM.
For the compound `Cc1cc(O)cc(C)c1/C=C/c1cncc(C(=O)OC(C)(C)C)c1`, the GI50 was 4.75 µM in [1]; 12.7 µM in assay [2]; above 22.1 µM in [3]; above 16.8 µM in assay [4]; 17 µM in [5]; 17.9 µM in assay [6]. Moreover, the GI50 in assay [7] was 14 µM; in assay [8], 19.8 µM; in assay [9], 9.75 µM; in [10] it was 8.65 µM. The TGI is above 23.9 µM in assay [1]; above 25 µM in assay [2]; above 25 µM in assay [3]; above 25 µM in assay [4]; above 25 µM in assay [5]; above 25 µM in assay [6]. Further, the TGI in assay [7] is above 25 µM; in assay [8], above 25 µM; in [9], above 25 µM; in [10], 22.7 µM.
On to `Cc1ccc(C(=O)N=Nc2c(O)[nH]c3ccc(Cl)cc23)cc1`, for which the GI50 in assay [1] is 16.6 µM; in assay [2], above 50 µM; in assay [3], above 50 µM; in [4], 19.8 µM; in assay [5] it was 9.3 µM; in assay [6], 41.8 µM. Besides, the GI50 is 18.7 µM in [7], 44.5 µM in assay [8], 13.7 µM in assay [9] and 38.7 µM in assay [10]. In addition, the TGI was above 50 µM in assay [1]; above 50 µM in assay [2]; above 50 µM in [3]; above 50 µM in [4]; 23.1 µM in assay [5]; above 50 µM in [6]. The TGI in assay [7], in assay [8], in [9] and in assay [10] was above 50 µM in each case.
With `CN1CCN(c2ccc(C(=O)Nc3cccc(C#Cc4cccc5[nH]nc(N)c45)c3)cc2C(F)(F)F)CC1`, the GI50 in [1] was 0.624 µM; in assay [2], 0.801 µM; in assay [3] it was 1.7 µM; in assay [4] it was 0.715 µM; in assay [5], 0.665 µM; in assay [6] it was 0.631 µM. Further, the GI50 in assay [7] was 0.568 µM; in assay [8], 0.654 µM; in assay [9], 0.799 µM; in assay [10], 0.866 µM. In addition, the TGI is 1.62 µM in [1]; 2.4 µM in assay [2]; 5.49 µM in assay [3]; 1.81 µM in assay [4]; 1.62 µM in [5]; 1.25 µM in assay [6]. In addition, the TGI in assay [7] is 1.35 µM; in assay [8], 1.39 µM; in assay [9], 2.31 µM; in assay [10], 3.08 µM.
As to `CN(C)c1ccc(C(=C2C=CC(=[N+](C)C)C=C2)c2ccccc2Cl)cc1`, the GI50 in assay [1] is 0.238 µM; in [2], 0.4 µM; in assay [3] it was 0.339 µM; in assay [4], 0.167 µM; in [5], 0.323 µM; in assay [6] it was 0.4 µM. The GI50 was 0.338 µM in assay [7], 0.0894 µM in [8], 0.405 µM in assay [9] and 0.277 µM in assay [10]. Further, the TGI in [1] was 0.851 µM; in assay [2], 1.61 µM; in assay [3] it was 0.899 µM; in [4] it was 1.03 µM; in [5], 1.43 µM; in [6], 1.44 µM. Besides, the TGI in assay [7] worked out at 1.73 µM; in assay [8], 0.401 µM; in assay [9], 1.61 µM; in assay [10] it was 3.84 µM.
With `COc1ccc(/C(=N/O)c2cc(OC)c(OC)c(OC)c2)c(OC)c1N`, the GI50 in [1] was 2.21 µM; in [2], 17.8 µM; in [3] it was above 100 µM; in assay [4], 3.54 µM; in assay [6] it was above 100 µM; in [7], 5.36 µM. Further, the GI50 in [8] was 3.02 µM; in assay [10] it was 3.38 µM. For the same compound, the TGI in assay [1], in [2], in assay [3], in assay [4], in [6] and in assay [7] was above 100 µM in each case. For the same compound, the TGI in assay [8] is above 100 µM; in assay [10], 14.3 µM.
For the compound `O=C(COc1ccc(-c2nc3cc(Cl)c(Cl)cc3[nH]2)cc1)N=Nc1c(O)[nH]c2ccccc12`, the GI50 was 1.61 µM in assay [1]; 3.71 µM in assay [2]; 3.84 µM in [3]; 1.14 µM in [4]; 2.83 µM in [5]; 1.09 µM in assay [7]. For the same compound, the figures for the GI50 in assay [8], in [9] and in assay [10] were 2.63 µM, 2.71 µM and above 100 µM, respectively. The TGI in assay [1] was 3.68 µM; in assay [2] it was above 100 µM; in assay [3], 24.1 µM; in assay [4] it was above 100 µM; in assay [5] it was above 100 µM; in [7], 3.43 µM. Moreover, the figures for the TGI in [8], in assay [9] and in assay [10] were 9.01 µM, 9.77 µM and above 100 µM, respectively.
In the case of `CCCC#CCOC(=O)c1cc([N+](=O)[O-])cc([N+](=O)[O-])c1`, the TGI in [1], in [2], in [3], in assay [4], in assay [5] and in [6] was above 100 µM throughout. For the same compound, the TGI in assay [7], in assay [8] and in [10] was above 100 µM throughout.
